In ChEMBL document CHEMBL4680307, “Potent leads based on CA-19L, an anti-HIV active HIV-1 capsid fragment” (Bioorg Med Chem, 2021):

Legend:
[1] = Cytotoxicity against in human MT-4 after 5 days by MTT assay; format: cell-based, MT4; details: MT-4 cells, time 5 day
[2] = test system: Human immunodeficiency virus 1; test: Antiviral activity against HIV-1 NL(AD8) in human PM1/CCR5 cells assessed as virus induced cytopathic effect incubated for 5 days by MTT assay; format: functional, organism-based; details: Human immunodeficiency virus 1, NL(AD8), PM1/CCR5, 120 h
[3] = test system: Human immunodeficiency virus 1; test: Antiviral activity against HIV-1 NL4-3 in human MT-4 cells assessed as virus induced cytopathic effect incubated for 5 days by MTT assay; format: functional, organism-based; details: Human immunodeficiency virus 1, NL4-3, MT4, 120 h
[4] = test system: Human immunodeficiency virus 1; test: Antiviral activity against HIV-1 NL(AD8) in human PM1/CCR5 cells assessed as virus induced cytopathic effect at 50 uM incubated for 5 days by MTT assay; format: functional; details: Human immunodeficiency virus 1, NL(AD8), PM1/CCR5, 120 h, time 5 day
[5] = test system: Human immunodeficiency virus 1; test: Antiviral activity against HIV-1 NL4-3 in human MT-4 cells assessed as virus induced cytopathic effect at 25 uM incubated for 5 days by MTT assay; format: functional; details: Human immunodeficiency virus 1, NL4-3, MT4, 120 h, time 5 day

SMILES	CC50 at 120 h [1] [µM]	EC50 [2] [µM]	EC50 [3] [µM]	inhibition at 50 µM [4] [%]	inhibition at 25 µM [5] [%]
CC[C@H](C)[C@H](NC(=O)[C@@H](NC(=O)[C@H](CCCCN)NC(=O)[C@H](CO)NC(=O)[C@H](CC(=O)O)NC(=O)[C@@H]1CCCN1C(=O)[C@H](CC(N)=O)NC(=O)[C@H](C)NC(=O)[C@H](CC(N)=O)NC(=O)[C@H](CCC(N)=O)NC(=O)[C@@H](NC(=O)[C@H](CC(C)C)NC(=O)[C@H](CC(C)C)NC(=O)[C@@H](NC(=O)[C@H](CCC(=O)O)NC(=O)[C@@H](NC(=O)[C@H](CCSC)NC(=O)[C@H](Cc1c[nH]c2ccccc12)NC(=O)[C@H](CC(N)=O)NC(=O)[C@H](CCCCN)NC(=O)[C@@H](NC(=O)[C@H](CCC(=O)O)NC(=O)[C@H](CCC(N)=O)NC(=O)[C@H](CO)NC(C)=O)C(C)C)[C@@H](C)O)[C@@H](C)O)C(C)C)[C@@H](C)O)C(=O)N[C@@H](CC(C)C)C(=O)N[C@@H](CCCCN)C(=O)N[C@@H](C)C(=O)N[C@@H](CC(C)C)C(=O)NCC(=O)N1CCC[C@H]1C(=O)NCC(=O)N[C@@H](C)C(=O)N[C@H](C(=O)NCC(=O)N[C@@H](CSCC(=O)N[C@@H](CCCNC(=N)N)C(=O)N[C@@H](CCCNC(=N)N)C(=O)N[C@@H](CCCNC(=N)N)C(=O)N[C@@H](CCCNC(=N)N)C(=O)N[C@@H](CCCNC(=N)N)C(=O)N[C@@H](CCCNC(=N)N)C(=O)N[C@@H](CCCNC(=N)N)C(=O)N[C@@H](CCCNC(=N)N)C(N)=O)C(N)=O)[C@@H](C)O	> 50	50	22		
CSCC[C@H](NC(=O)[C@H](Cc1c[nH]c2ccccc12)NC(=O)[C@H](CC(N)=O)NC(=O)[C@H](CCCCN)NC(=O)[C@@H](NC(C)=O)C(C)C)C(=O)N[C@H](C(=O)N[C@@H](CCC(=O)O)C(=O)N[C@H](C(=O)N[C@@H](CC(C)C)C(=O)N[C@@H](CC(C)C)C(=O)N[C@H](C(=O)N[C@@H](CCC(N)=O)C(=O)N[C@@H](CC(N)=O)C(=O)N[C@@H](C)C(=O)N[C@@H](CC(N)=O)C(=O)NCC(=O)N[C@@H](CSCC(=O)N[C@@H](CCCNC(=N)N)C(=O)N[C@@H](CCCNC(=N)N)C(=O)N[C@@H](CCCNC(=N)N)C(=O)N[C@@H](CCCNC(=N)N)C(=O)N[C@@H](CCCNC(=N)N)C(=O)N[C@@H](CCCNC(=N)N)C(=O)N[C@@H](CCCNC(=N)N)C(=O)N[C@@H](CCCNC(=N)N)C(N)=O)C(N)=O)C(C)C)[C@@H](C)O)[C@@H](C)O	> 50	50	> 50	40	27
CC[C@H](C)[C@H](NC(=O)[C@@H](NC(=O)[C@H](CCCCN)NC(=O)[C@H](CO)NC(=O)[C@H](CC(=O)O)NC(=O)[C@@H]1CCCN1C(=O)[C@H](CC(N)=O)NC(=O)[C@H](C)NC(=O)[C@H](CC(N)=O)NC(=O)[C@H](CCC(N)=O)NC(=O)[C@@H](NC(=O)[C@H](CC(C)C)NC(=O)[C@H](CC(C)C)NC(=O)[C@@H](NC(=O)[C@H](CCC(=O)O)NC(=O)[C@@H](NC(=O)[C@H](CCSC)NC(=O)[C@H](Cc1c[nH]c2ccccc12)NC(=O)[C@H](CC(N)=O)NC(=O)[C@H](CCCCN)NC(=O)[C@@H](NC(=O)[C@H](CCC(=O)O)NC(=O)[C@H](CCC(N)=O)NC(=O)[C@H](CO)NC(C)=O)C(C)C)[C@@H](C)O)[C@@H](C)O)C(C)C)[C@@H](C)O)C(=O)N[C@@H](CC(C)C)C(=O)N[C@@H](CCCCN)C(=O)N[C@@H](C)C(=O)N[C@@H](CC(C)C)C(=O)NCC(=O)N[C@@H](CSCC(=O)N[C@@H](CCCNC(=N)N)C(=O)N[C@@H](CCCNC(=N)N)C(=O)N[C@@H](CCCNC(=N)N)C(=O)N[C@@H](CCCNC(=N)N)C(=O)N[C@@H](CCCNC(=N)N)C(=O)N[C@@H](CCCNC(=N)N)C(=O)N[C@@H](CCCNC(=N)N)C(=O)N[C@@H](CCCNC(=N)N)C(N)=O)C(N)=O	21	50	> 25		39
c1cc(CN2CCCNCCNCCCNCC2)ccc1CN1CCCNCCNCCCNCC1 [PLERIXAFOR]	> 50	> 50	0.049		
COC[C@@H](c1ccc(C(F)(F)F)cc1)N1CCN(C2(C)CCN(C(=O)c3c(C)ncnc3C)CC2)C[C@@H]1C [VICRIVIROC]	> 5	0.21	> 5		
Cc1cn([C@H]2C[C@H](N=[N+]=[N-])[C@@H](CO)O2)c(=O)[nH]c1=O [ZIDOVUDINE]	74	3.3	0.094		
